Measurements as given in patent publication US12144864B2, “Tubulysins and protein-tubulysin conjugates” (Regeneron Pharmaceuticals, Inc., priority 2018, dated 2024).
pIC50: −log10 of the molar value. Read-outs that look alike come from different tables or passages of the source.

How the values were obtained:
C4-2 cells = assay: Cell-based killing assay of payloads (CellTiter-Glo), C4-2 cells; parameters: species or system human; conditions: 5-day incubation; for pIC50: Homo sapiens, C4-2, 120 h, average ± SD where replicates; for C4-2 % Kill: at maximum concentration tested (100 − % viable cells)
How it was run: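 Viability readout is CellTiter-Glo luminescence after a 5-day exposure to 10-point, threefold-diluted payloads spanning 100 nM–[…], following overnight attachment of 4000 cells/well. Four-parameter logistic fit gives IC50 in M; % kill taken at highest concentration tested.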

HCT15 cells = assay: cells; format: cell-based, human; conditions: HCT15 cells; for HCT-15 + verapamil % Kill / HCT-15 % Kill: maximum % cell killing
How it was run: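 Five-day exposure of 1000 HCT15 cells/well to threefold payload dilutions, run both plus and minus verapamil (5 ug/mL) in RPMI with 10% FBS. ATP luminescence (CellTiter-Glo) gives viability; four-parameter logistic fit of 10 points yields IC50, and 100 − % viable at highest dose gives % kill.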

HEK293 cells = assay: Cell-based killing assay of payloads (CellTiter-Glo), HEK293 cells; parameters: species or system human; conditions: 5-day incubation; for pIC50: Homo sapiens, HEK293, 120 h
Method: (§1) To test the ability of the disclosed tubulysin payloads to kill human cell lines, an in vitro cytotoxicity assay was performed. In vitro cytotoxicity of the disclosed payloads, as well as reference compounds, were evaluated using the CellTiter-Glo Assay Kit (Promega, Cat #G7573), in which the quantity of ATP present is used to determine the number of viable cells in culture. For the assay, C4-2, HEK293, or T47D cells were seeded at 4000 cells/well on Nunclon white 96-well plates in complete growth medium (DME high glucose:Ham's F12 at 4:1, 10% FBS, 100 units/ml Penicillin, 100 ug/ml streptomycin, 53 ug/ml glutatmine, 10 ug/ml insulin, 220 ng/ml biotin, 12.5 pg/ml T3, 12.5 ug/ml Adenine, 4 ug/ml transferrin for C42 cells; DME high glucose, 10% FBS, 100 units/ml Penicillin, 100 ug/ml streptomycin, 53 ug/ml glutatmine for HEK293; RPMI, 10% FBS, 100 units/ml Penicillin, 100 ug/ml streptomycin, 53 ug/ml glutatmine, 10 ug/ml insulin, 10 mM HEPEs, 200 nM Sodium Pyruvate for T47D cells) and grown overnight at 37° C. in 5% CO2. For cell viability curves, 1:3 serially diluted payloads were added to the cells at final concentrations ranging from 100 nM to […], including a no treatment control group, and were then incubated for 5 days. After the 5-day incubation, cells were incubated at room temperature with 100 μL of CellTiter-Glo reagents for 10 minutes. Relative luminescence units (RLU) were determined on a Victor plate reader (PerkinElmer). The IC50 values were determined from a four-parameter logistic equation over a 10-point response curve (GraphPad Prism). All IC50 values are expressed in molar (M) concentration. The percent cell killing (% kill) at the maximum concentration tested was estimated from the following formula (100−% viable cells). Averages±standard deviation (SD) are included where replicate experiments were performed.

T47D cells = assay: Cell-based killing assay of payloads (CellTiter-Glo), T47D cells; parameters: species or system human; conditions: 5-day incubation; for pIC50: Homo sapiens, T47D, 120 h
Method: as §1

HL60/MX2 cells = assay: Cytotoxicity in panel of MDR cell lines, HL60/MX2 (72 h and 144 h); format: cell-based, human; conditions: for pIC50: Homo sapiens
How it was run: (§2)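 Four-parameter logistic fitting of 10-point CellTiter-Glo curves gives the IC50, expressed molar. Cells, including resistant H69AR, MES-SA/MX2 and HL60/MX2 plus HCT-15, are plated at 1000/well and exposed to payloads for 72 h and 144 h.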

HCT-15 cells = assay: Cytotoxicity in panel of MDR cell lines, HCT-15 (72 h and 144 h); format: cell-based, human; conditions: for pIC50: Homo sapiens
How it was run: as §2

MES-SA/MX2 cells = assay: Cytotoxicity in panel of MDR cell lines, MES-SA/MX2 (72 h and 144 h); format: cell-based, human; conditions: for pIC50: Homo sapiens
How it was run: as §2

H69AR cells = assay: Cytotoxicity in panel of MDR cell lines, H69AR (72 h and 144 h); format: cell-based, human; conditions: for pIC50: Homo sapiens
How it was run: as §2

[1] = with 5 ug/mL Verapamil, read-out: HCT-15 + verapamil IC50
[2] = Homo sapiens, HCT-15, without Verapamil, read-out: HCT-15 IC50
[3] = at maximum concentration tested

Structure (SMILES) | pIC50 (C4-2 cells) | C4-2 % Kill (C4-2 cells) [%] | HCT-15 + verapamil % Kill (HCT15 cells; with 5 ug/mL Verapamil) [%] | pIC50 (HCT15 cells; [1]) | HCT-15 % Kill (HCT15 cells; without Verapamil) [%] | pIC50 (HCT15 cells; [2]) | pIC50 (HEK293 cells) | pIC50 (T47D cells) | other results
C#CCCCON(C(=O)[C@@H](NC(=O)[C@H]1CCCCN1C)[C@@H](C)CC)[C@H](C[C@@H](OC(=O)NCC)c1nc(C(=O)N[C@@H](Cc2ccc(N)cc2)CC(C)(C)C(=O)O)cs1)C(C)C [VIf, (4S)-5-(4-Aminophenyl)-4-({2-[(1R,3R)-1-[(ethylcarbamoyl)oxy]-4-methyl-3-[(2S,3S)-3-methyl-2-{[(2R)-1-methylpiperidin-2-yl]formamido}-N-(pent-4-yn-1-yloxy)pentanamido]pentyl]-1,3-thiazol-4-yl}formamido)-2,2-dimethylpentanoic acid] | 9.51 | 93.9 | 98.8 | 10.07 | 99.1 | 8.69 | 9.42 | 9.52 | HEK293 % Kill (HEK293 cells; [3]): 85.6%; T47D % Kill (T47D cells; [3]): 63.2%
CC[C@H](C)[C@H](NC(=O)[C@H]1CCCCN1C)C(=O)N(OCCCO)[C@H](C[C@@H](OC(C)=O)c1nc(C(=O)N[C@@H](Cc2ccc(O)cc2)C[C@H](C)C(=O)O)cs1)C(C)C [Vk, (2S,4R)-4-(2-((1R,3R)-1-Acetoxy-3-((2S,3S)—N-(3-hydroxypropoxy)-3-methyl-2-((R)-1-methylpiperidine-2-carboxamido)pentanamido)-4-methylpentyl)thiazole-4-carboxamido)-5-(4-hydroxyphenyl)-2-methylpentanoic acid] | – | – | 83 | 7.37 | 41.5 | ≤ 7.00 | < 7.00 | < 7.00 | –
CCCCCON(C(=O)[C@@H](NC(=O)[C@H]1CCCCN1C)[C@@H](C)CC)[C@H](C[C@@H](OC(=O)NC)c1nc(C(=O)N[C@@H](Cc2ccc(N)cc2)CC(C)(C)C(=O)O)cs1)C(C)C [VIh, (S)-5-(4-Aminophenyl)-4-(2-((5R,7R)-7-isopropyl-8-((2S,3S)-3-methyl-2-((R)-1-methylpiperidine-2-carboxamido)pentanoyl)-3-oxo-4,9-dioxa-2,8-diazatetradecan-5-yl)thiazole-4-carboxamido)-2,2-dimethylpentanoic acid] | 9.80 | 93.9 | 97.8 | 10.15 | 99 | 9.58 | – | – | HL60/MX2 % Kill 72 h (HL60/MX2 cells; 72 h incubation): 97.6%; HL60/MX2 % Kill 144 h (HL60/MX2 cells; 144 h incubation): 99.9%; pIC50 (HL60/MX2 cells; 72 h incubation, read-out: HL60/MX2 IC50 72 h): 10.41; pIC50 (HL60/MX2 cells; 144 h incubation, read-out: HL60/MX2 IC50 144 h): > 10.82; HCT-15 % Kill 72 h (HCT-15 cells; 72 h incubation): 97.9%; HCT-15 % Kill 144 h (HCT-15 cells; 144 h incubation): 99.7%; pIC50 (HCT-15 cells; 72 h incubation, read-out: HCT-15 IC50 72 h): 9.44; pIC50 (HCT-15 cells; 144 h incubation, read-out: HCT-15 IC50 144 h): 9.29; MES-SA/MX2 % Kill 72 h (MES-SA/MX2 cells; 72 h incubation): 98.5%; MES-SA/MX2 % Kill 144 h (MES-SA/MX2 cells; 144 h incubation): 99.8%; pIC50 (MES-SA/MX2 cells; 72 h incubation, read-out: MES-SA/MX2 IC50 72 h): 8.90; pIC50 (MES-SA/MX2 cells; 144 h incubation, read-out: MES-SA/MX2 IC50 144 h): 8.57; H69AR % Kill 72 h (H69AR cells; 72 h incubation): 96.3%; H69AR % Kill 144 h (H69AR cells; 144 h incubation): 99.1%; pIC50 (H69AR cells; 72 h incubation, read-out: H69AR IC50 72 h): 8.97; pIC50 (H69AR cells; 144 h incubation, read-out: H69AR IC50 144 h): 8.76
